# Measurements as given in patent publication US9175007B2, “IRAK inhibitors and uses thereof” (Nimbus Iris, Inc., priority 2013, dated 2015).
# Experiments:
# [1] = target: T1, IRAK4 (Homo sapiens, UniProt Q9NWZ3); experiment: IRAK-4 activity inhibition assay (Caliper); assay type: biochemical; conditions: 3.5 nM IRAK4, 37 μM ATP, 1.5 μM Peptide 8
# T1 construct: purchased CARNA Bioscience 09-145
# T1 sequence (Q9NWZ3 1-460): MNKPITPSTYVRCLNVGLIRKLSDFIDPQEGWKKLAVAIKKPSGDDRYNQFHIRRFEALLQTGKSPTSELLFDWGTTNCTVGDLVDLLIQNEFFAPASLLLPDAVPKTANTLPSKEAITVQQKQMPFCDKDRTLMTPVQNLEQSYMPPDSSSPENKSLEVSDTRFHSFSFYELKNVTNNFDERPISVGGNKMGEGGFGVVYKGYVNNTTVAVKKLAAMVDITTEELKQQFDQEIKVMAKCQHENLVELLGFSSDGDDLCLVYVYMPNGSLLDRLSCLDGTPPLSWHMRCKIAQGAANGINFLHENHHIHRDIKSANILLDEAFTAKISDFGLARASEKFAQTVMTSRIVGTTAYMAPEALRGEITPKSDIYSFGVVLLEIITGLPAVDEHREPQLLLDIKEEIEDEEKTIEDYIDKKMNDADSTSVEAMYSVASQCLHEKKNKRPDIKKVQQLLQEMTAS
# Method: A 1× kinase base buffer was prepared from 50 mM HEPES, pH 7.5 and 0.0015% Brij-35. A stop buffer was prepared from 100 mM HEPES, pH 7.5, 0.015% Brij-35, 0.2% Coating Reagent #3, and 50 mM EDTA.
# Test compound was diluted to 50× of the final desired highest inhibitor concentration in reaction by 100% DMSO. 100 ul of this compound dilution was transferred to a well in a 96-well plate.
# Test compound was serially diluted by transferring 30 μl to 60 μl of 100% DMSO in the next well and so forth for a total of 10 concentrations. 100 μl of 100% DMSO was added to two empty wells for no compound control and no enzyme control in the same 96-well plate.
# A new 96-well plate was marked as intermediate plate. 5 μl of compound serial dilution was transferred from source plate to the corresponding wells of the intermediate plate. 45 μl of 1× kinase base buffer (KB buffer) was added to each well of the intermediate plate. The intermediate plate was placed for 10 min on a shaker.
# 5 μl of each well was transferred from the 96-well intermediate plate to a 384-well plate in duplicates. For example, A1 of the 96-well plate is transferred to A1 and A2 of the 384-well plate. A2 of the 96-well plate is transferred to A3 and A4 of the 384-well plate, and so on.
# IRAK4 and DTT in 1× kinase base buffer was added. The 2.5× enzyme mix contained 8.8 nM IRAK4 and 5 mM DTT.
# Peptide 8, ATP, MgCl2 and MnCl2 were added in the 1× kinase base buffer. The 2.5× peptide mix contained 3.75 μM peptide 8, 92.5 μM ATP, 12.5 mM MgCl2 and 2.5 mM MnCl2.
# Assay plate already contained 5 μl of compound in 10% DMSO. Added 10 μl of 2.5× enzyme solution to each well of the 384-well assay plate, except no enzyme control wells. The final concentration of IRAK4 in reaction was 3.5 nM. Added 10 μl of 1× kinase base buffer to no enzyme control wells in the assay plate. Incubated at room temperature for 10 min.
# Added 10 μl of 2.5× peptide solution to each well of the 384-well assay plate. The final concentration of Peptide 8 and ATP was 1.5 μM and 37 μM, respectively. Incubated at 28° C. for 40 minutes. Added 25 μl of stop buffer to stop reaction. Collected data on Caliper.
# Copied conversion % data from Caliper program. Converted conversion % values to percent inhibition values. Percent inhibition=(max-conversion %)/(max-min)*100, where “max” means the conversion % of DMSO control and “min” means the conversion % of no enzyme control.
# [2] = tested on: TNFα production in THP-1 cells; experiment: LPS induced TNFα production assay in THP-1 cells; assay type: cell-based; conditions: Homo sapiens, 300 ng/mL LPS
# Method: (§1) Provided compounds were also assayed in an LPS (Lipopolysacharide) or R848 (TLR-7 agonist) induced cytokine (TNFα and IL8) production assay in THP-1 cells, human peripheral blood mononuclear cells (hPBMC), and whole blood. The exemplary protocol for this assay in THP-1 cells was as follows below.
# (§2) THP-1 cells from ATCC (TIB-202) were cultured in RPMI Medium 1640 (Invitrogen, Cat No. A10491-01), 10% fetal bovine serum (Invitrogen, Cat No. 10099141, Lot No. 8172882) containing 100 U/mL Penicillin, 100 μg/mL streptomycin (Invitrogen, Cat No. 15140-122), and 50 uM 2-Mercaptoethanol (Invitrogen, Cat No. 21985023). LPS-EK ultra pure (Invivogen, Cat No. tlrl-peklps) was used to induce IL8 and TNFα production, that was detected in the cell culture supernatant by IL8 HTRF kit (Cisbio, Cat No. 62IL8PEB) and TNFα HTRF kit (Cisbio, Cat No. 62TNFPEB), as per manufacturer instructions. Cells were cultured in 96 well assay plates at 100,000 cells per well, and compounds diluted in final 0.3% DMSO were pre-incubated with cells for 1 hour prior to stimulation with 300 ng/mL LPS. Cytokine production in cell supernatant was measured at 5 hours for TNFα and IL8 production, and for 16 hours for IL8 production and assessment of cell viability.
# [3] = tested on: IL8 production in THP-1 cells; experiment: LPS induced IL8 production assay in THP-1 cells; assay type: cell-based; conditions: Homo sapiens, 300 ng/mL LPS
# Method: as §1, §2
# [4] = tested on: TNF-α production in whole blood; experiment: In vitro R848-induced TNF-α production in whole blood; assay type: cell-based; conditions: Homo sapiens, R848 1 uM
SMILES,IC50 [1] [µM],IC50 [2] [µM],IC50 [3] [µM],IC50 [4] [µM]
CN1CCN(c2ccc(Nc3nc(O[C@H]4CC[C@H](N(C)C)CC4)c4c5c(sc4n3)CC[C@@H]5CC(N)=O)cc2)CC1 [Compound I-23],≤ 5,1 to 5,≥ 5,–
"Cn1cc(Nc2nc(N[C@H]3CC[C@H](N(C)C)CC3)c3c4c(sc3n2)CCC4)cn1 [Compound I-72, 12-N-[4-(dimethylamino)cyclohexyl]-10-N-(1-methyl-1H-pyrazol-4-yl)-7-thia-9,11-diazatricyclo[6.4.0.0[2,6]]dodeca-1(8),2(6),9,11-tetraene-10,12-diamine]",≤ 5,≤ 0.5,≤ 0.5,–
"Cn1cc(Nc2nc(N[C@H]3CC[C@H](N4CCOCC4)CC3)c3c4c(sc3n2)CCC4)cn1 [Compound I-74, 10-N-(1-methyl-1H-pyrazol-4-yl)-12-N-[4-(morpholin-4-yl)cyclohexyl]-7-thia-9,11-diazatricyclo[6.4.0.0[2,6]]dodeca-1(8),2(6),9,11-tetraene-10,12-diamine]",≤ 5,≤ 0.5,≤ 0.5,–
"Cn1cc(Nc2nc(O[C@H]3CC[C@H](N(C)C)CC3)c3c4c(sc3n2)CCC4)cn1 [Compound I-14, 12-[[4-(dimethylamino)cyclohexyl]oxy]-N-(1-methyl-1H-pyrazol-4-yl)-7-thia-9,11-diazatricyclo[6.4.0.0[2,6]]dodeca-1(8),2(6),9,11-tetraen-10-amine]",≤ 5,≤ 0.5,≤ 0.5,–
"c1coc(Nc2nc(N[C@H]3CC[C@H](N4CCOCC4)CC3)c3c4c(sc3n2)CCC4)n1 [Compound I-9, 12-N-[4-(morpholin-4-yl)cyclohexyl]-10-N-(1,3-oxazol-2-yl)-7-thia-9,11-diazatricyclo[6.4.0.0[2,6]]dodeca-1(8),2(6),9,11-tetraene-10,12-diamine]",5 to 20,–,–,–
c1nocc1Nc1nc(N[C@H]2CC[C@H](N3CCOCC3)CC2)c2c3c(sc2n1)CCC3 [Compound I-77],≤ 5,≤ 0.5,≤ 0.5,–
"CN1CCN(c2ccc(Nc3nc(O[C@H]4CC[C@H](N(C)C)CC4)c4c5c(sc4n3)CCC5CC(N)=O)cc2)CC1 (stereo partly drawn) [Compound I-19, 2-(4-(((1r,4r)-4-(dimethylamino)cyclohexyl)oxy)-2-((4-(4-methylpiperazin-1-yl)phenyl)amino)-6,7-dihydro-5H-cyclopenta[4,5]thieno[2,3-d]pyrimidin-5-yl)acetamide]",≤ 5,–,≥ 5,–
"Fc1cccc(Nc2nc(N[C@H]3CC[C@H](N4CCOCC4)CC3)c3c4c(sc3n2)CCC4)c1 [Compound I-3, N2-(3-fluorophenyl)-N4-((1r,4r)-4-morpholinocyclohexyl)-6,7-dihydro-5H-cyclopenta[4,5]thieno[2,3-d]pyrimidine-2,4-diamine]",≤ 5,–,–,–
"CN1CCC(c2ccc(Nc3nc(N[C@H]4CC[C@H](N5CCOCC5)CC4)c4c5c(sc4n3)CCC5)cc2)CC1 [Compound I-10, 10-N-[4-(1-methylpiperidin-4-yl)phenyl]-12-N-[4-(morpholin-4-yl)cyclohexyl]-7-thia-9,11-diazatricyclo[6.4.0.0[2,6]]dodeca-1(8),2(6),9,11-tetraene-10,12-diamine]",≤ 5,–,–,–

# Next, values leading:
IC50 [1] [µM],IC50 [2] [µM],IC50 [3] [µM],IC50 [4] [µM],SMILES
≤ 5,≤ 0.5,≤ 0.5,–,c1nscc1Nc1nc(N[C@H]2CC[C@H](N3CCOCC3)CC2)c2c3c(sc2n1)CCC3 [Compound I-76]
≤ 5,1 to 5,1 to 5,–,"CN(C)[C@H]1CC[C@H](Nc2nc(Nc3ccccc3)nc3sc4c(c23)CCC4)CC1 [Compound I-75, 12-N-[4-(dimethylamino)cyclohexyl]-10-N-phenyl-7-thia-9,11-diazatricyclo[6.4.0.0[2,6]]dodeca-1(8),2(6),9,11-tetraene-10,12-diamine]"
≤ 5,0.5 to 1,≤ 0.5,–,"Cn1cc(Nc2nc(O[C@H]3CC[C@H](N4CCOCC4)CC3)c3c4c(sc3n2)CCC4)cn1 [Compound I-73, N-(1-methyl-1H-pyrazol-4-yl)-12-[[4-(morpholin-4-yl)cyclohexyl]oxy]-7-thia-9,11-diazatricyclo[6.4.0.0[2,6]]dodeca-1(8),2(6),9,11-tetraen-10-amine]"
≤ 5,–,–,≥ 1,"Cn1cc(Nc2nc(O[C@H]3CC[C@H](N(C)C)CC3)c3c4c(sc3n2)CC[C@@H]4CC(N)=O)cn1 [Compound I-22, 2-[(3R)-12-[[4-(dimethylamino)cyclohexyl]oxy]-10-[(1-methyl-1H-pyrazol-4-yl)amino]-7-thia-9,11-diazatricyclo[6.4.0.0[2,6]]dodeca-1(8),2(6),9,11-tetraen-3-yl]acetamide]"
≤ 5,≤ 0.5,≤ 0.5,–,"CN(C)[C@H]1CC[C@H](Oc2nc(Nc3ccccc3)nc3sc4c(c23)[C@@H](CC(N)=O)CC4)CC1 [Compound I-24, 2-[(3R)-10-(phenylamino)-12-[[(1r,4r)-4-(dimethylamino)cyclohexyl]oxy]-7-thia-9,11-diazatricyclo[6.4.0.0[2,6]]dodeca-1(8),2(6),9,11-tetraen-3-yl]acetamide]"
≤ 5,–,–,≥ 1,Cn1cc(Nc2nc(O[C@H]3CC[C@H](N4CCOCC4)CC3)c3c4c(sc3n2)CC[C@@H]4CC(N)=O)cn1 [Compound I-25]
